Measured values from US4950663A, “Antihypertensive composition” (priority 1989, dated 1990).
“Also recorded” adds a separate entry of the source. Counter-ions that a name gives are not always drawn.

Key:
[1] = Comparative cardiovascular effects (heart rate, mean arterial pressure, coronary blood flow) after intravenous dosing in anesthetized dogs; type: in vivo; conditions: for effect on heart rate (in words): M2 at 1600 μg/kg, diltiazem at 400 μg/kg; for reduction in heart rate: M2 at a dosage 4 times greater than diltiazem
[2] = Elimination and metabolism; type: in vivo
Liposolubility = type: physicochemical
Side effects = type: in vivo; conditions: compositions
[3] = dogs; test of dose required to cause a 50% increase in blood flow; cited from earlier work
[4] = anesthetized dogs, 50 μg/kg intravenous, value at 0 μg/kg: D 59, M2 49
[5] = anesthetized dogs, 50 μg/kg intravenous, value at 0 μg/kg: D 99, M2 99
[6] = anesthetized dogs, 200 μg/kg intravenous, value at 0 μg/kg: D 59, M2 49
[7] = anesthetized dogs, 200 μg/kg intravenous, value at 0 μg/kg: D 99, M2 99
[8] = anesthetized dogs, 200 μg/kg intravenous, value at 0 μg/kg: D 130, M2 127

Question: With COc1ccc([C@@H]2Sc3ccccc3N(CCN(C)C)C(=O)[C@@H]2OC(C)=O)cc1 [Diltiazem, (+)-cis-3-(acetyloxy)-5-[2-dimethylamino-ethyl]-2,3-dihydro-2-(4-methoxyphenyl)-l,5-benzothiaz epin-4(5H)one monohydrochloride, reference compound] as the compound, how does the Coronary blood flow ([1]; anesthetized dogs, 15 μg/kg intravenous, value at 0 μg/kg: D 59) read?
Answer: 67 mL/min

Question: What about the Mean arterial pressure ([1]; anesthetized dogs, 15 μg/kg intravenous, value at 0 μg/kg: D 99) of the same compound?
Answer: 94 mm Hg

Question: And the Coronary blood flow [1, 4]?
Answer: 73 mL/min

Question: What about the Mean arterial pressure [1, 5] of the same compound?
Answer: 84 mm Hg

Question: And the Coronary blood flow [1, 6]?
Answer: 91 mL/min

Question: And the Mean arterial pressure [1, 7]?
Answer: 67 mm Hg

Question: And the Heart rate [1, 8]?
Answer: 122 beats/minute

Question: What about the Coronary blood flow ([1]; anesthetized dogs, 400 μg/kg intravenous, value at 0 μg/kg: D 59) of the same compound?
Answer: 83 mL/min

Question: What about the Mean arterial pressure ([1]; anesthetized dogs, 400 μg/kg intravenous, value at 0 μg/kg: D 99) of the same compound?
Answer: 58 mm Hg

Question: What about the “Maximal reduction in mean arterial pressure” value ([1]; anesthetized dogs, intravenous) of the same compound?
Answer: -38%

Question: What about the “increase in coronary blood flow” value ([1]; anesthetized dogs, intravenous) of the same compound?
Answer: > 50%

Question: And the “effect on heart rate (in words)” value ([1]; anesthetized dogs, intravenous)?
Answer: significant effect on the heart rate

Question: What about the “reduction in heart rate” value ([1]; anesthetized dogs, intravenous) of the same compound?
Answer: > 20%

Question: With CNCCN1C(=O)C(O)C(c2ccc(OC)cc2)Sc2ccccc21 (stereo not drawn) [M2, N-desmethyl, deacetyl diltiazem] as the compound, how does the Coronary blood flow [1, 4] read?
Answer: 53 mL/min

Question: And the Mean arterial pressure [1, 5]?
Answer: 96 mm Hg

Question: And the Heart rate ([1]; anesthetized dogs, 50 μg/kg intravenous, value at 0 μg/kg: D 130, M2 127)?
Answer: 127 beats/minute

Question: And the Coronary blood flow [1, 6]?
Answer: 55 mL/min

Question: What about the Mean arterial pressure [1, 7] of the same compound?
Answer: 88 mm Hg

Question: And the Heart rate [1, 8]?
Answer: 127 beats/minute

Question: What about the Coronary blood flow ([1]; anesthetized dogs, 800 μg/kg intravenous, value at 0 μg/kg: M2 49) of the same compound?
Answer: 61 mL/min

Question: And the Mean arterial pressure ([1]; anesthetized dogs, 800 μg/kg intravenous, value at 0 μg/kg: M2 99)?
Answer: 74 mm Hg

Question: And the Heart rate ([1]; anesthetized dogs, 800 μg/kg intravenous, value at 0 μg/kg: M2 127)?
Answer: 125 beats/minute

Question: What about the Coronary blood flow ([1]; anesthetized dogs, 1600 μg/kg intravenous, value at 0 μg/kg: M2 49) of the same compound?
Answer: 61 mL/min

Question: And the Mean arterial pressure ([1]; anesthetized dogs, 1600 μg/kg intravenous, value at 0 μg/kg: M2 99)?
Answer: 63 mm Hg

Question: What about the Heart rate ([1]; anesthetized dogs, 1600 μg/kg intravenous, value at 0 μg/kg: M2 127) of the same compound?
Answer: 119 beats/minute

Question: What about the “Maximal reduction in mean arterial pressure” value ([1]; anesthetized dogs, intravenous) of the same compound?
Answer: -36%

Question: What about the “coronary blood flow dilation relative to diltiazem” value ([1]; anesthetized dogs, intravenous) of the same compound?
Answer: about half that effect; also recorded: about half that of diltiazem

Question: What about the “increase in coronary blood flow” value ([1]; anesthetized dogs, intravenous) of the same compound?
Answer: > 25%

Question: And the “peripheral dilation capacity relative to diltiazem” value ([1]; anesthetized dogs, intravenous)?
Answer: equivalent peripheral dilation capacity

Question: What about the “effect on heart rate (in words)” value ([1]; anesthetized dogs, intravenous) of the same compound?
Answer: devoted of major effect upon heart rate

Question: What about the “effect on heart rate (in words)” value ([1]; anesthetized dogs, intravenous, deacetyl diltiazem) of the same compound?
Answer: only a slight effect on the heart rate

Question: What about the “reduction in heart rate” value ([1]; anesthetized dogs, intravenous) of the same compound?
Answer: < 10%

Question: And the “serious cardiovascular adverse effects” value ([1]; anesthetized dogs, maximal dosage 4 times greater than diltiazem)?
Answer: without serious cardiovascular adverse effects

Question: And the “effect on mean arterial pressure (in words)” value ([1]; anesthetized dogs, various intravenous dosages)?
Answer: decreases the mean arterial pressure

Question: And the “decrease in heart rate compared with diltiazem” value ([1]; compared with diltiazem)?
Answer: decrease the heart rate to a lesser degree than diltiazem

Question: What about the “intravenous dosages suitable for use as a coronary dilator” value ([1]; intravenous) of the same compound?
Answer: 50 to 1600 µg/kg

Question: What about the “intravenous dosages useful to decrease blood pressure or mean arterial pressure” value ([1]; intravenous) of the same compound?
Answer: 200 to 1600 µg/kg

Question: And the “elimination half life compared with diltiazem” value ([2]; compared with diltiazem)?
Answer: shorter elimination half life

Question: What about the “metabolism by the liver” value ([2]; in vivo) of the same compound?
Answer: not metabolized extensively by the liver

Question: And the “liposolubility compared with diltiazem” value (Liposolubility)?
Answer: lower liposolubility than diltiazem

Question: What about the “side effects compared with diltiazem” value (Side effects) of the same compound?
Answer: less side effects than diltiazem

Question: What about the “effect on coronary blood flow relative to diltiazem” value [3] of the same compound?
Answer: 20%
